Data: US10669545B2, “Tumor cell malignant transformation suppressor and anti-tumor agent” (JAPAN SCIENCE AND TECHNOLOGY AGENCY, priority 2015, dated 2020)

What was measured:
Type in all cases: cell-based, human
A375 cells = assay: Annexin V-positive cells, A375 cells; conditions: UO126 10 μM or oxaliplatin 20 μM for 48 hours, compared with PLX4032 case
Method: The percentage of Annexin V-positive cells was measured as follows. First, FITC labeled Annexin V (manufactured by MBL, Nagoya, Japan) and Hoechst33342 were added to each cell and incubated for 40 minutes. Next, a stained state of the incubated cells was analyzed by using DAPI filter and FITC filter of an imaging cytometer, “In Cell Analyzer 2000” (manufactured by GE healthcare). Percentage (%) of […] was determined by In Cell Analyzer Workstation 3.7 (manufactured by GE healthcare). The statistical difference was determined by the Tukey's multiple comparisons of means test (**: P<0.01, *: P<0.05).
Next, the influence of knockdown of endogenous ZIC5, and PDGFD and ITGA6, which are downstream factors, on a decrease in cell proliferation by PLX4032 and induction of apoptosis was examined. […] Next, the treated cells were added to FITC labeled Annexin V (manufactured by MBL, Nagoya, Japan) and Hoechst33342 and incubated for 40 minutes. […]
(§1) The statistical difference was determined by the Tukey's multiple comparisons of means test (**: P<0.01, *: P<0.05).

pro-PDGFD = assay: Western blotting of pro-PDGFD; conditions: A375 cells; 24 hours; FAK inhibitor I 0-5 μM, WP1066 0-4 μM
Text: Because phosphorylation of focal adhesion kinase (FAK), which is activated at Focal adhesion, has been associated with melanoma malignancy (refer to NPL 19), FAK change by ZIC5 was examined. Furthermore, focusing on Integrin, alpha 6 (ITGA6) and platelet-derived growth factor D (PDGFD) among the Focal adhesion-related genes in the altered genes by Zic5 knockdown, change in cells was examined. Specifically, a level of phosphorylated FAK (pFAK), total FAK (FAK), ITGA6, pro-PDGFD, and β-actin in A375 cells transfected with siZIC5 or siNeg was assessed by western blotting. Western blotting was performed in the same manner as above except that anti-pFAK antibody (manufactured by Signalway Antibody), anti-FAK antibody (manufactured by Acris), anti-β-actin antibody (manufactured by Sigma), anti-ITGA6 antibody (manufactured by GeneTex), and anti-PDGFD antibody (manufactured by Santa Cruz) were used.
The expression level of PDGFD gene and Zic5 gene in the obtained cells was measured by western blotting using GAPDH as an internal control. […]
A375 cells were treated in a medium in which a concentration of a FAK inhibitor I (manufactured by Calbiochem) was 0, 1, 2.5, or 5 μM for 24 hours, and the level of ZIC5, pro-PDGFD, pERK, and β-actin was measured by western blotting. […]

[1] = system: stably Zic5 gene-expressed line (SK-MEL-28 cells); assay: Annexin V-positive cells, stably Zic5 gene-expressed line; conditions: WP1066 10 μM for 24 hours; not shown
Method: PLX4032 was dissolved in DMSO to be used as a solution, and a line added to an equal amount of DMSO (DMSO treatment) was used as a control. The result of a relative cell number (n=3) in which the number of cells of the cells in which the stably Flag-expressed line was treated with PLX4032 (in the drawing, “+” on the “PLX4032” section, the same applies to the following examples), or the cells treated with DMSO (in the drawing, “−” on the “PLX4032” section, the same applies to the following examples) was set to 1 is shown in FIG. 30. The statistical difference was determined by the Tukey's multiple comparisons of means test (**: P<0.01, *: P<0.05). […]
The percentage of Annexin V-positive cells was measured as follows. […] Next, a stained state of the incubated cells was analyzed by using DAPI filter and FITC filter of an imaging cytometer, “In Cell Analyzer 2000” (manufactured by GE healthcare). Percentage (%) of […] was determined by In Cell Analyzer Workstation 3.7 (manufactured by GE healthcare). The statistical difference was determined by the Tukey's multiple comparisons of means test (**: P<0.01, *: P<0.05).
as §1

[2] = system: phosphorylated Stat3 (pStat3); assay: Western blotting of phosphorylated Stat3; conditions: A375 cells; 24 hours; WP1066 0-4 μM, IL-6 0-20 ng/mL
Method: (§2) A375 cells were treated in a medium in which a concentration of the Stat3 inhibitor, WP1066 (manufactured by Santa Cruz, Dallas, Tex.) was 0, 1, 1.5, 2, 2.5, 3, or 4 μM for 24 hours, and then western blotting was performed to assess the level of ZIC5, pro-PDGFD, pSTAT3, STAT3, and GAPDH. Western blotting was performed in the same manner as above except that anti-ZIC5 antibody (manufactured by Aviva systems biology), anti-PDGFD antibody (manufactured by Santa Cruz), anti-pSTAT3 antibody (manufactured by Cell Signaling), STAT3 antibody (manufactured by BD Biosciences), and anti-GAPDH antibody (manufactured by Cell Signaling) were used.
as §2, with “Interleukin-6 (IL-6)” for “the Stat3 inhibitor, WP1066”, “Novus Biologicals)” for “Santa Cruz, Dallas, Tex.)”, “10,” for “1, 1.5, 2, 2.5, 3,”, “20 ng/mL” for “4 μM”, “anti-pERK” for “anti-PDGFD”, “Cell Signaling),” for “Santa Cruz),”

ZIC5 = assay: Western blotting of ZIC5; conditions: A375 cells; 24 hours; FAK inhibitor I 0-5 μM, WP1066 0-4 μM, IL-6 0-20 ng/mL
Method: The expression level of PDGFD gene and Zic5 gene in the obtained cells was measured by western blotting using GAPDH as an internal control. Western blotting was performed according to a method of Kanemaru et al. (refer to NPL 13) using anti-ZIC5 antibody (manufactured by Aviva systems biology), anti-PDGFD antibody (manufactured by Santa Cruz), and anti-GAPDH antibody (manufactured by Cell Signaling).
(§3) A375 cells were treated in a medium in which a concentration of a FAK inhibitor I (manufactured by Calbiochem) was 0, 1, 2.5, or 5 μM for 24 hours, and the level of ZIC5, pro-PDGFD, pERK, and β-actin was measured by western blotting. Western blotting was performed in the same manner as above except that anti-ZIC5 antibody (manufactured by Aviva systems biology), anti-PDGFD antibody (manufactured by Santa Cruz), anti-pERK antibody (manufactured by Cell Signaling), and anti-β-actin antibody (manufactured by Sigma) were used.
A375 cells were treated in a medium in which a concentration of the Stat3 inhibitor, WP1066 (manufactured by Santa Cruz, Dallas, Tex.) was 0, 1, 1.5, 2, 2.5, 3, or 4 μM for 24 hours, and then western blotting was performed to assess the level of ZIC5, pro-PDGFD, pSTAT3, STAT3, and GAPDH. […]

total STAT3 (STAT3) = assay: Western blotting of total STAT3; conditions: A375 cells; 24 hours; WP1066 0-4 μM, IL-6 0-20 ng/mL
Method: as §2
as §2, with “Interleukin-6 (IL-6)” for “the Stat3 inhibitor, WP1066”, “Novus Biologicals)” for “Santa Cruz, Dallas, Tex.)”, “10,” for “1, 1.5, 2, 2.5, 3,”, “20 ng/mL” for “4 μM”, “anti-pERK” for “anti-PDGFD”, “Cell Signaling),” for “Santa Cruz),”

[3] = system: phosphorylated MLC2 (ppMLC2); assay: Western blotting of phosphorylated MLC2; conditions: stably Zic5 gene-expressed line treated with ROCK inhibitor; not shown
Method: Myosin light chain 2 (MLC2) is known as an important factor for enhancing melanoma motility. It is known that MLC2 is activated through phosphorylation and enhances cell motility by enhancing actomyosin contraction (refer to NPLs 14 and 15). A protein level of phosphorylated MLC2 (ppMLC2), MLC2, and GAPDH of each cell was measured by western blotting. Western blotting was performed according to a method of Kanemaru et al. (refer to NPL 13) using anti-ppMLC2 antibody, anti-MLC2 antibody, and anti-GAPDH antibody (all manufactured by Cell Signaling).
Motility of melanoma cells in a case of siRNA-mediated knockdown of endogenous Zic5 gene was examined by performing Transwell Migration Assay. Specifically, SK-MEL-28 cells and A375 cells, which are melanoma cell lines, were transfected with siZIC5#1, siZIC5#2, siNeg#1, or siNeg#2 described in Table 2 in the same manner as Example 1. In the same manner as above, Transwell Migration Assay was performed with the cells transfected with each siRNA, and then the number of migrated cells was counted. […] The protein level of ppMLC2, MLC2, and GAPDH in the cells in which SK-MEL-28 cells were transfected with siRNA was measured by western blotting. The result of western blotting with SK-MEL-28 cells is shown at the bottom of FIG. 9.
The protein level of ppMLC2, MLC2, and GAPDH in each cell was measured by western blotting in the same manner as above.

[4] = system: stably Zic5 gene-expressed line (SK-MEL-28 cells); assay: Transwell Migration Assay, stably Zic5 gene-expressed line; conditions: treated or non-treated with ROCK inhibitor
Method: Specifically, the stably Zic5 gene-expressed line and the stably Flag-expressed line were seeded in a 24-well plate into which an insert with 8-μm sized pores (manufactured by BD Biosciences) was put and were cultured in RPMI 1640 medium containing 10% FBS, and then the number of migrated cells was counted.
The influence of suppressing MLC2 phosphorylation on migration ability of cells was analyzed. Specifically, Transwell Migration Assay was performed in the same manner as above with the stably Zic5 gene-expressed line and the stably Flag-expressed line in a state of being treated or non-treated with a ROCK inhibitor (Y27632), and then the number of migrated cells was counted.
The number of migrated cells was normalized to a total number of viable cells. A relative cell number (n=3) in which the number of migrated cells transfected with siNeg#1 of each cell was set to 1 is shown in FIG. 29. The statistical difference was determined by the Tukey's multiple comparisons of means test (**: P<0.01, *: P<0.05).

[5] = system: phosphorylated ERK1/2 (Thr202/204) (pERK); assay: Western blotting of phosphorylated ERK1/2; conditions: A375 cells; 24 hours; FAK inhibitor I 0-5 μM, IL-6 0-20 ng/mL
Method: Western blotting was performed in the same manner as above except that anti-pAKT antibody (manufactured by Cell Signaling), anti-AKT antibody (manufactured by Cell Signaling), anti-pERK antibody (manufactured by Cell Signaling), anti-ERK antibody (manufactured by Cell Signaling), and anti-β-actin antibody (manufactured by Sigma) were used.
vemR-1 to 3 cells and HT144 cells were treated with DMSO or PLX4032 solution (which was dissolved in DMSO to become 5 μM) for 48 hours, and the level of pAKT, AKT, pERK, ERK, and β-actin of these cells was assessed by western blotting in the same manner as Example 8.
as §3
A375 cells were treated in a medium in which a concentration of Interleukin-6 (IL-6) (manufactured by Novus Biologicals) was 0, 10, or 20 ng/mL for 24 hours, and then western blotting was performed to assess the level of ZIC5, pro-PDGFD, pSTAT3, STAT3, and GAPDH. […]

N#CC(=C(/N)Sc1ccccc1N)/C(C#N)=C(/N)Sc1ccccc1N [UO126]
percentage of Annexin V-positive cells, drug treatment of siZIC5- vs siNeg-transfected cells (A375 cells): the same results were obtained

C[C@H](NC(=O)/C(C#N)=C/c1cccc(Br)n1)c1ccccc1 [WP1066, reference compound]
expression level of pro-PDGFD (pro-PDGFD): decreased in accordance with a concentration of the Stat3 inhibitor | suppression of apoptosis by Zic5 [1]: completely suppressed | expression level of pSTAT3 [2]: decreased in accordance with a concentration of the Stat3 inhibitor | expression level of ZIC5 (ZIC5): decreased in accordance with a concentration of the Stat3 inhibitor | level of STAT3 (total STAT3 (STAT3)): not changed

C[C@@H](N)[C@H]1CC[C@H](C(=O)Nc2ccncc2)CC1 [Y27632, reference compound]
band of ppMLC2 [3]: hardly detected | increase of migrated cells by Zic5 gene overexpression [4]: partially suppressed

O=C1[O][Pt]2([NH][C@@H]3CCCC[C@H]3[NH]2)[O]C1=O [oxaliplatin]
percentage of Annexin V-positive cells, drug treatment of siZIC5- vs siNeg-transfected cells (A375 cells): the same results were obtained

IL-6: Interleukin-6 (manufactured by Novus Biologicals)
expression level of pSTAT3 [2]: increased in accordance with a concentration of the IL-6 | level of pERK [5]: not changed | expression level of ZIC5 (ZIC5): increased in accordance with a concentration of the IL-6 | level of STAT3 (total STAT3 (STAT3)): not changed
